{"source": "paper PMC8880313", "about": "“Discovery of Novel Andrographolide Derivatives as Antiviral Inhibitors against Human Enterovirus A71” (Pharmaceuticals, 2022)", "key": {"EV-A71 Passage 21": {"test_system": "EV-A71 Passage 21", "test": "Post-treatment assay on EV-A71 passaged 21 times with ZAF-47 (resistant mutant generation)", "format": "cell-based, human enterovirus A71 (EV-A71)", "conditions": "supernatant from Passage 21, MOI = 1, RD cells", "description": "Unfortunately, we were unable to obtain any resistant mutants as the viral titre for ZAF-47-treated remained lower than that of the controls at Passage 21. […] As a result, we hypothesize that ZAF-47 possibly targets host factor/s associated with EV-A71 RNA replication which makes it harder to generate resistant mutants.\nSeeded 24-well plates, with 1.5 × 10^5 RD cells per well, were incubated overnight at 37 °C with 5% CO2. After which, the cells were subjected to EV-A71 infection (200 µL per well, MOI = 1) for 1 h before treatment with 800 µL of ZAF-47 at final concentration of 10 µM for 12 h at 37 °C with 5% CO2. Treatment with reduced serum DMEM and 0.1% DMSO functioned as negative and vehicle controls respectively. Upon 12 hpi, the supernatant was collected for viral plaque assay as well as to infect (200 µL) another seeded plate."}, "EV-A71": {"test_system": "EV-A71", "test": "Immunofluorescence-based preliminary screen of EV-A71-infected RD cells", "format": "cell-based, human enterovirus A71 (EV-A71) strain 41", "conditions": "EV-A71-infected RD cells (MOI = 1)", "text": "The screening assay was built using an immunofluorescence approach that was previously established and validated, with DAPI-stained nuclei accounting for total cell count and FITC-stained EV-A71 accounting for infected cell count upon EV-A71 infection and compound treatment. Both cell counts would then be used to calculate percentage infection and percentage inhibition to identify for hits. Before the screening platform can be employed to screen for potential antivirals, its robustness has to be appraised. In this study, Z-factor was calculated to assess the robustness of the screening platform. Firstly, seeded RD cells were either infected with EV-A71 (Multiplicity of Infection of 1) or mock-infected with media. The cells were then fixed, stained and imaged 12 h post-infection (hpi). The IFA images were analyzed with the Cell Profiler software to determine the infection rate of each well. Between the virus-infected and mock-infected wells, a clear distinction in infection rates could be observed (Figure 1a). […] In this case, the Z-factor, measured at 0.818, was indicative of a highly robust screening platform for high-throughput screening. The constructed screening platform was then employed to screen the compound library made up of 344 chemically synthesized novel compounds analogous to andrographolide. The compounds were screened at 10 µM with IFA images taken and analyzed to identify for hits. Treatment with 0.1% DMSO was used as vehicle control.\nSeeded 96-well plates (Corning Inc., Corning, NY, USA), with 2 × 10^4 RD cells per well, were incubated overnight at 37 °C with 5% CO2. The seeded cells were then infected with EV-A71 (50 µL per well, MOI = 1) for 1 h at 37 °C with 5% CO2. The EV-A71-infected cells were then treated with the compound library at a final concentration of 10 µM for 12 h at 37 °C with 5% CO2. Treatment with 0.1% DMSO was used as vehicle control. Following treatment, cells were fixed with 100 µL of methanol (Sinopharm Chemical, Shanghai, China) for 15 min at −20°C and rinsed with 100 µL of 1x PBS for three times before performing indirect immunofluorescence assay (IFA). Anti-EV-A71 VP2 1° antibodies, MAB979 (Merck Millipore, Burlington, VT, USA), diluted 500-fold in PBS, was incubated with the fixed cells for 1 h at 37 °C. Cells were then rinsed thrice with PBS and incubated with anti-mouse FITC 2° antibodies (Merck Millipore), diluted 200-fold in PBS, for 1 h at 37 °C. After which, the cells were rinsed thrice with PBS before staining with DAPI (Sigma-Aldrich) at room temperature for 15 min. Cells were then rinsed thrice and preserved in 100 µL of PBS before imaging with the Operetta High-Content Imaging System and the Harmony High-Content Imaging and Analysis Software (Perkin Elmer, Waltham, MA, USA). Images of stained cells were captured with the DAPI and FITC fluorescence filters, from a pre-determined central position of each well and processed with the Cell Profiler software. […] The percentage infection (PI) for each well was calculated using the formula: Infected cell count/Total cell count × 100%. The percentage inhibition for each well was calculated using the formula PI0− PI/PI0 × 100% where PI0 refers to the percentage infection of wells treated with the vehicle control while PI refers to the percentage infection of wells treated with the compounds."}, "[1]": {"test_system": "replication-competent EV-A71 RNA replicon", "test": "Nano-luciferase reporter assay, replication-competent replicon", "format": "cell-based, human enterovirus A71 (EV-A71)", "conditions": "RD cells, 12 h; ZAF-47 different concentrations, GuHCl 1 mM", "description": "To identify specifically which of these two intrinsically linked processes that ZAF-47 inhibits, we transfected RD cells with EV-A71 RNA replicons that were either replication-competent or replication-defective and subsequently treated them with different concentrations of ZAF-47 for 12 h before detecting for luminescence. Both forms of replicons were previously established and validated. The replication-competent replicon is capable of self-replicating as it contains an intact 3D region that encodes for 3D polymerase (3D^pol) responsible for RNA replication (Figure 4c). […] In contrast, the replication-defective replicon contains a 3D region with 159 nucleotide deletion which would produce a non-functional 3D protein and impair RNA replication (Figure 4c). As such, cells containing the replication-defective replicon express luciferase upon IRES translation of the original replicons only. The transfected cells were also treated with negative control, DMSO and positive controls, guanidine hydrochloride (GuHCl) and cycloheximide (CHX), a RNA replication-specific inhibitor [50] and a general translation inhibitor [51] respectively.\nSeeded 96-well plates, with 2 × 10^4 RD cells per well, were incubated overnight at 37 °C with 5% CO2. […]"}}, "data": [{"smiles": "CC(=O)OC[C@]1(C)C(=O)CC[C@@]2(C)C(C/C=C3/C(=O)OC[C@@H]3Oc3cccc4cccnc34)=C(C)CC[C@@H]21", "note": "[ZAF-47, (14β)-(8′-Quinolinoxy)-3-ketone-9-dehydro-17-hydro-19-acetoxy–andrographolide]", "values": [{"measurement": "inhibition of passaged virus", "setting": "EV-A71 Passage 21", "value": "still capable of inhibiting the passaged virus dose-dependently"}, {"measurement": "Nuclei Count", "setting": "EV-A71; 10 µM, 12 h, 0.1% DMSO wells 998", "value": 955}, {"measurement": "inhibition at 10 µM", "setting": "EV-A71; Enterovirus A, EVA71, 12 h, read-out: Inhibition Rate (%)", "value": 77.1, "unit": "%"}, {"measurement": "luminescence, replication-competent replicon", "setting": "[1]", "value": "significant decrease in luminescence in a dose-dependent manner"}]}]}
